Test results from article PMC7158214 (Clinical Pharmacology and Therapeutics, 2020).
“And” between values parts separate entries of the source, which are not always exact repeats. Identical values can stand only once. Like-named read-outs stand apart in the source and are kept apart here.

What was measured:
OATP1B [1] = experiment: Nonlinear regression of AUCR^-1 vs rifampicin Cmax; assay type: in vivo, human; settings: from AUCR based on AUC0-24h
OATP1B [2] = experiment: Effect of rifampicin on plasma AUC0-24h of endogenous compounds; assay type: in vivo, human; settings: for AUC0-24h Geometric Mean Ratio Control/Baseline (90% CI): probe cocktail vs placebo day; for AUC0-24h Geometric Mean Ratio +RIF/Control (90% CI): +RIF600
OATP1B [3] = settings: +RIF600
[4] = cited from earlier work
[5] = assay type: in vivo; settings: human, plasma, po

Row | Compound | fRIF (fraction sensitive to inhibition by rifampicin) (OATP1B [1]) | AUC0-24h Geometric Mean Ratio +RIF/Control (90% CI) (OATP1B [2]) | also measured
1 | C[C@H](CCC(=O)NCC(=O)O)[C@H]1CC[C@H]2[C@@H]3[C@H](O)C[C@@H]4C[C@H](O)CC[C@]4(C)[C@H]3C[C@H](O)[C@]12C [GCA, glycocholate] | – | – | AUC0-24h Geometric Mean Ratio Control/Baseline (90% CI) (OATP1B [2]): > 1.25
2 | C[C@H](CCC(=O)NCC(=O)O)[C@H]1CC[C@H]2[C@@H]3[C@H](O)C[C@@H]4C[C@H](O)CC[C@]4(C)[C@H]3CC[C@]12C [GCDCA, glycochenodexoxycholate] | – | – | AUC0-24h Geometric Mean Ratio Control/Baseline (90% CI) (OATP1B [2]): > 1.25
3 | C[C@H](CCC(=O)NCC(=O)O)[C@H]1CC[C@H]2[C@@H]3CC[C@@H]4C[C@H](OS(=O)(=O)O)CC[C@]4(C)[C@H]3C[C@H](O)[C@]12C [GDCA-S, glycodeoxycholate‐3‐sulfate] | – | greater than 2 | –
4 | C[C@H](CCC(=O)NCC(=O)O)[C@H]1CC[C@H]2[C@@H]3CC[C@@H]4C[C@H](OS(=O)(=O)O)CC[C@]4(C)[C@H]3CC[C@]12C [GLCA-S, glycolithocholate‐3‐sulfate] | – | greater than 2 | –
5 | O=C(O)CCCCCCCCCCCCCCC(=O)O [HDA, hexadecanedioic acid] | 0.776 ± 0.093 | – | –
6 | CCCCC(=O)N(Cc1ccc(-c2ccccc2-c2nnn[nH]2)cc1)[C@H](C(=O)O)C(C)C [Valsartan, valsartan, reference compound] | 0.831 ± 0.036 | – | AUC0-24h Geometric Mean Ratio +RIF/Control (90% CI) (OATP1B [3]): 5.5
7 | CO[C@H]1/C=C/O[C@@]2(C)Oc3c(C)c(O)c4c(O)c(c(/C=N/N5CCN(C)CC5)c(O)c4c3C2=O)NC(=O)/C(C)=C\C=C\[C@H](C)[C@H](O)[C@@H](C)[C@@H](O)[C@@H](C)[C@H](OC(C)=O)[C@@H]1C [rifampicin] | – | – | AUC(0-t) ([5]; 150 mg): 19.8 ± 1.2 µM·h; Cmax ([5]; 150 mg): 4.78 ± 0.29 µM; AUC(0-t) ([5]; 300 mg): 55.5 ± 3.4 µM·h; AUC(0-t) ([5]; 600 mg): 141 ± 9 µM·h; Cmax ([5]; 600 mg): 22.8 ± 2.6 µM
8 | direct bilirubins [D-BIL] | 0.976 ± 0.180 | 2.8 | –

More lines, main results first:

Row | fRIF (fraction sensitive to inhibition by rifampicin) (OATP1B [1]) | AUC0-24h Geometric Mean Ratio +RIF/Control (90% CI) (OATP1B [2]) | Compound | also measured
9 | 0.801 ± 0.124 | – | C[C@H](CCC(=O)O[C@@H]1O[C@H](C(=O)O)[C@@H](O)[C@H](O)[C@H]1O)[C@H]1CC[C@H]2[C@@H]3[C@H](O)C[C@@H]4C[C@H](O)CC[C@]4(C)[C@H]3CC[C@]12C [CDCA-24G, chenodeoxycholate‐24‐glucuronide] | AUC0-24h Geometric Mean Ratio Control/Baseline (90% CI) (OATP1B [2]): > 1.25 and 1.4
10 | 1 ± 0.08 | ~ 15 | C[C@H](CCC(=O)NCC(=O)O)[C@H]1CC[C@H]2[C@@H]3[C@H](O)C[C@@H]4C[C@H](O[C@@H]5O[C@H](C(=O)O)[C@@H](O)[C@H](O)[C@H]5O)CC[C@]4(C)[C@H]3CC[C@]12C [GCDCA-G, glycochenodeoxycholate‐3‐glucuronide] | –
11 | 0.810 ± 0.043 | – | O=C(O)C[C@H](O)C[C@H](O)/C=C/c1c(C2CC2)nc2ccccc2c1-c1ccc(F)cc1 [Pitavastatin, pitavastatin, reference compound] | AUC0-24h Geometric Mean Ratio +RIF/Control (90% CI) (OATP1B [3]): 4.0
12 | 0.702 ± 0.122 | – | CC(C)c1nc(N(C)S(C)(=O)=O)nc(-c2ccc(F)cc2)c1/C=C/[C@@H](O)C[C@@H](O)CC(=O)O [Rosuvastatin, rosuvastatin] | AUC0-24h Geometric Mean Ratio +RIF/Control (90% CI) (OATP1B [3]): 2.5; contribution of urinary excretion to the systemic elimination [4]: ca. 20%
13 | – | greater than 2 | C[C@H](CCC(=O)NCCS(=O)(=O)O)[C@H]1CC[C@H]2[C@@H]3CC[C@@H]4C[C@H](OS(=O)(=O)O)CC[C@]4(C)[C@H]3CC[C@]12C [TLCA-S, taurolithocholate‐3‐sulfate] | –
